Measured values: publication PMC7445463 (Diabetologia, 2020)

Legend:
[1] = tested on: isolated diabetic mouse hearts; experiment: Langendorff-perfused db/db hearts, stable isotope analysis
[2] = 24-week empagliflozin appetite trial in overweight/obesity and T2D; type: in vivo, human
[3] = tested on: patients with T2D and CV disease; experiment: EMPA-REG OUTCOME post hoc analyses; set-up: species or system human; details: in vivo
[4] = Empagliflozin 4-week crossover study, cardiac PET/CT; type: in vivo, human
[5] = tested on: rats with CHF; type: in vivo, rat; details: 30 mg/kg PO
[6] = tested on: DIO C57/B6 mice; experiment: gastric emptying and weight in DIO mice; type: in vivo, mouse; details: 14-day
[7] = DIO mice under 50% dietary restriction, indirect calorimetry; type: in vivo, mouse
[8] = seven- and ninety-day treatment

Compound: OC[C@H]1O[C@@H](c2ccc(Cl)c(Cc3ccc(O[C@H]4CCOC4)cc3)c2)[C@H](O)[C@@H](O)[C@@H]1O [EMPA, empagliflozin]
- 13C labeling of lactate ([1]; 1 μM, 35 min, 13C glucose perfusion, vehicle 58 ± 2): 50 ± 3%
- glucose-6-phosphate content ([1]; 1 μM, 35 min, vehicle 5.2 ± 0.8): 3.3 ± 0.4 AU
- 13C labeling of α-KG ([1]; 13C palmitate perfusion, vehicle 79 ± 1): 86 ± 1%
- circulating PYY vs placebo ([2]; 12-weeks, 3-hour mixed meal tolerance test, P = 0.003): elevated
- circulating GLP-1 vs placebo (GEE) ([2]; overall across follow-up, P = 0.016): higher
- patients with insulin dose reduction >10% [3]: 14.0%
- myocardial glucose uptake (MGU) ([4]; 18F-FDG PET, placebo 1.4±0.6): 0.6±0.6 μmol/100g/min
- 48-hour mean blood glucose ([4]; four weeks, placebo 9.4 ± 2.2): 8.0 ± 0.9
- reduction of postabsorptive myocardial glucose uptake ([4]; in vivo): 57%
- circulating FFA ([4]; placebo 0.8±3): 1.0 ± 0.4 mmol/L
- FFA esterification rate ([4]; placebo 1.1±0.6): 1.3±0.7 μmol/100g/min
- myocardial FFA oxidation rate ([4]; placebo 8.0±3.1): 7.2±3.1 μmol/100g/min
- total FFA uptake rate ([4]; placebo 9.1±3.2): 8.4±3.6 μmol/100g/min
- myocardial oxygen consumption ([4]; placebo 9.77 ± 1.34): 8.97 ± 1.11 ml/100g/min
- myocardial external energy efficiency ([4]; placebo 27.7±4.5): 29.5±7.3%
- 3-hydroxybutyrate ([4]; placebo 65 ± 8): 130 ± 17 µmol/L
- 24-hour mean arterial pressure ([4]; placebo 92±8): 88±5 mmHg
- myocardial perfusion ([5]; long-term (90 days)): increased
- exercise capacity ([5]; long-term (90 days), p=0.06): increased
- LV EDP [5, 8]: reductions
- LV ESP [5, 8]: increases

Compound: CC[C@H](C)[C@H](NC(=O)[C@H](CC(C)C)NC(=O)[C@H](Cc1c[nH]c2ccccc12)NC(=O)[C@H](CCC(N)=O)NC(=O)[C@@H](NC(=O)[C@H](Cc1ccccc1)NC(=O)[C@H](C)NC(=O)[C@H](CCCCNC(=O)COCCOCCNC(=O)COCCOCCNC(=O)CC[C@H](NC(=O)CCCCCCCCCCCCCCCCCCC(=O)O)C(=O)O)NC(=O)[C@H](CCC(N)=O)NC(=O)[C@H](C)NC(=O)[C@@H](NC(=O)[C@H](CCCCN)NC(=O)[C@H](CC(=O)O)NC(=O)[C@H](CC(C)C)NC(=O)C(C)(C)NC(=O)[C@@H](NC(=O)[C@H](CO)NC(=O)[C@H](Cc1ccc(O)cc1)NC(=O)[C@H](CC(=O)O)NC(=O)[C@H](CO)NC(=O)[C@@H](NC(=O)[C@H](Cc1ccccc1)NC(=O)[C@@H](NC(=O)CNC(=O)[C@H](CCC(=O)O)NC(=O)C(C)(C)NC(=O)[C@@H](N)Cc1ccc(O)cc1)[C@@H](C)O)[C@@H](C)O)[C@@H](C)CC)[C@@H](C)CC)C(C)C)C(=O)N[C@@H](C)C(=O)NCC(=O)NCC(=O)N1CCC[C@H]1C(=O)N[C@@H](CO)C(=O)N[C@@H](CO)C(=O)NCC(=O)N[C@@H](C)C(=O)N1CCC[C@H]1C(=O)N1CCC[C@H]1C(=O)N1CCC[C@H]1C(=O)N[C@@H](CO)C(N)=O [tirzepatide]
- GE delay after chronic treatment [6]: abolished after 14-day chronic treatment
- weight loss during dietary restriction ([7]; 3 nmol/kg QD, 14 days, vehicle 15.2±1.2, pair fed 17.0±0.7): 22.4±1.3%
- increase of fat utilization vs vehicle ([7]; during DR): more than 30%
- energy expenditure during dietary restriction ([7]; reduction, indirect calorimetry): maintained similar to levels prior to DR
